Where two headings read alike, the source gives them in different places. Marks after values point to notes of the source that are not given here. Where a SMILES comes first, the peptide text is derived from it. Bridges are numbered along the chain shown (N, C = ends). [ ]: non-standard residue; d: D form. Aad = N[C@@H](CCCC(=O)O)C(=O)O; Dap = NC[C@H](N)C(=O)O; Mpa = O=C(O)CCS
Tests used:
V1a receptor = target: T1, V1a receptor (Homo sapiens, UniProt P37288); experiment: V1a Human Vasopressin GPCR Cell Based Agonist Calcium Flux Assay; conditions: for Emax: read-out: V1a Highest agonist effect (% of AVP)
T1 construct: host or cells: CHO cells
T1 sequence (P37288 whole entry): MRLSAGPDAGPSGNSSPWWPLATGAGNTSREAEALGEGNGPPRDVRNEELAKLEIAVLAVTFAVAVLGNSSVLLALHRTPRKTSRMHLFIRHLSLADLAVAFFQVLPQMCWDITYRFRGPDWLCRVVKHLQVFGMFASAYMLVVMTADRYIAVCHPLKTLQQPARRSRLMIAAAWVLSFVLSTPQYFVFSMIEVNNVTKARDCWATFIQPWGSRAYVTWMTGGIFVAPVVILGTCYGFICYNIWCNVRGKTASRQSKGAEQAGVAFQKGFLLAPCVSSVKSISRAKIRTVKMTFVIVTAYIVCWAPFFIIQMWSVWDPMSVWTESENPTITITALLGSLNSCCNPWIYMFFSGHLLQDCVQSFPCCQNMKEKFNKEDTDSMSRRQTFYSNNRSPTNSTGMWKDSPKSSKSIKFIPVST
Experimental: Peptides of Formula (I) include Mpa-Tyr-Phe-Hgn-Asn-Cys-Pro-Lys(X)a-Gly-NH2 [SEQ ID NO. 24]; where (X)a is a peptide with “a” residues and each residue X is independently selected from Gly, and a D- or L-amino acid version of Ala, Lys, Orn, Glu, and Asp, where “a” is 0-10. V1a Human Vasopressin GPCR Cell Based Agonist Calcium Flux Assay were conducted at Eurofins Cerep SA (France) on a fee for service basis. Human recombinant CHO cells expressing human V1 receptors were distributed in microplates. Intracellular calcium signal was detected by fluorimetry, and the signal was acquired before and after addition of a known agonist concentration. The following agonist concentrations were tested (nM); 0.0128, 0.064, 0.32, 1.6, 8, 40, 200, and 1,000. […] All assays were performed in duplicate. Changes in fluorescence intensity reflected changes in the concentration of free cytosolic calcium. […] The half-maximal effective concentration (EC50) was determined by a non-linear regression analysis of the concentration-response curves generated with mean replicate values using Hill equation curve fitting (Cerep, I'Evescault, France).
V1a Human Vasopressin GPCR Cell Based Agonist Calcium Flux Assay were conducted using human recombinant CHO cells expressing human V1 receptor. Briefly, human recombinant CHO cells expressing human V1 receptor were distributed in microplates at 4.5×10^4 cells/well. The fluorescent probe (Fluo4 Direct, Invitrogen) mixed with probenicid in HBSS buffer (Invitrogen) complemented with 20 mM HEPES (Invitrogen) (pH 7.4) is then added into each well and equilibrated with the cells for 60 min at 37° C. then 15 min at 22° C. Thereafter, the assay plates are positioned in a microplate reader (CellLux, PerkinElmer) which is used for the addition of the test compound, reference agonist or HBSS buffer (basal control), and the measurements of changes in fluorescence intensity which varies proportionally to the free cytosolic Ca^2+ ion concentration. The following agonist concentrations were tested (nM), 0.0128, 0.064, 0.32, 1.6, 8, 40, 200, and 1,000. […] All assays were performed in duplicate. Changes in fluorescence intensity reflected changes in the concentration of free cytosolic calcium. […] Referring to FIG. 3 and Table 4, the half-maximal effective concentration (EC50) was determined by non-linear regression analysis of the concentration-response curves generated with mean replicate values using Hill equation curve fitting (Cerep, I'Evescault, France).

[1] = Therapeutic index (NOAEL/NOEL): paleness, lethargy, ataxia observation in Sprague-Dawley rats (Example 7); format: in vivo; conditions: for NOAEL / NOAEL at 24 h: read-out: Highest dose with no-observed adverse effect level without lethargy (NOAEL); for NOAEL at 24 h: male, Sprague-Dawley
Description: As used herein, the term “therapeutic index” (TI; also referred to as therapeutic ratio) is a quantitative measure of the relative safety of a drug. […] For the purpose of the present application, lethargy is a lack of energy and/or sleepiness which is visually observed in rats as a lack of mobility, such as a lack of mobility even in the presence of human activity. For the purpose of present specification, peripheral vasoconstriction is visually observed by a paleness of the extremities (e.g., skin of hands, feet, ears, and lips). In rats, peripheral vasoconstriction is determined by a side-by-side comparison of ear paleness in treated subjects (e.g., Sprague Dawley rats, a white rat with easily visualizable changes in redness/paleness) vs. untreated control subjects. The V1a agonist (or partial agonist) with a high therapeutic index will have a better safety profile than that with a low therapeutic index by providing a wider margin of safety for dosing during the treatment of the disease. This NOAEL/NOEL ratio, being a quantitative measure of the relative safety, is a comparison of the amount of a therapeutic agent that causes the therapeutic effect (useful effect, vasoconstriction for the purpose of the present specification) to the amount that causes toxicity. A V1a agonist that causes severe vasoconstriction will affect not only the peripheral vessels, with several layer of smooth muscles, but also other vessels present in other organs (e.g., heart, lungs, kidney, brain) and this will result in observed lethargy and eventually ataxia. A partial agonist is less likely to reach such an extreme level of vasoconstriction and is believed to have a higher therapeutic index.
In this study, 8 to 10 weeks male Sprague-Dawley rats (Charles River; Wilmington, MA) under isoflurane anesthesia (n=3 or 6) were intravenously (IV) or subcutaneously (SC) injected or administered with various test articles. Prior to administration of test articles, the injection area was clipped free of fur, to allow for clear visualization of the dose site, and animal weight was measured and recorded. Animals were housed two per cage. […] Lethargy is when the animal eyes cannot fully open and is associated deep breathing and limited of movement even in the presence of human.

[2] = Table 3, cells printed in μM, read-out: Estimated V1a EC50, n = 2
[3] = S.C., at the Marked adverse effect dose
[4] = S.C., at the Mild adverse effect dose
[5] = Table 3, CHO cells expressing human V1 receptor, read-out: Estimated V1a EC50 (nM), n = 2

SMILES | EC50 (V1a receptor; [2]) | Emax (V1a receptor; Table 3, n = 2) | Highest dose with no-observed effect level or paleness (NOEL) ([1]; S.C., rat) | NOAEL/NOEL (therapeutic index) ([1]; S.C., rat) | NOAEL ([1]; in vivo, sc, S.C., rat) | Marked adverse effect (Lowest dose first showed Ataxia) ([1]; rat, in vivo, sc) | Mild adverse effect (Lowest dose first showed Lethargy) ([1]; rat, in vivo, sc) | Marked adverse effect (Lowest dose first showed Ataxia) ([1]; S.C., rat) | Mild adverse effect (Lowest dose first showed Lethargy) ([1]; S.C., rat) | Ataxia (duration, hrs; SD) ([1]; rat, in vivo, sc) | Lethargy (duration, hrs; SD) ([1]; rat, in vivo, sc) | Paleness (Duration, hrs; SD) [1, 3] | Paleness (Duration, hrs; SD) [1, 4] | Paleness (Duration, hrs; SD) ([1]; S.C., at the NOAEL dose) | Paleness (Duration, hrs; SD) ([1]; S.C., at the NOEL dose) | NOAEL at 24 h ([1]; in vivo, sc, S.C., rat) | bioactivity duration compared with terlipressin ([1]; remark in NOAEL/NOEL column) | EC50 (V1a receptor; [5]) | EC50 (V1a receptor; FIG. 2 / FIG. 3 legend, n=2, read-out: EC50 for V1a receptor) | Emax (V1a receptor; Table 4, n = 2)
NCCCC[C@@H](NC(=O)[C@@H]1CCCN1C(=O)[C@@H]1CSSCCC(=O)N[C@@H](Cc2ccc(O)cc2)C(=O)N[C@@H](Cc2ccccc2)C(=O)N[C@@H](CCCC(N)=O)C(=O)N[C@@H](CC(N)=O)C(=O)N1)C(=O)NCC(N)=O [SEQ ID NO. 18, Mpa-Tyr-Phe-Hgn-Asn-Cys-Pro-dLys-Gly-NH2] | > 10 µM | 0.2% | 0.005 mg/kg | 30 | 0.15 mg/kg | 1.5 mg/kg | 0.5 mg/kg | – | – | – | – | – | – | – | – | – | – | – | – | –
NCCCCCCCCCCCC(=O)NCCCC[C@H](NC(=O)[C@@H]1CCCN1C(=O)[C@@H]1CSSCCC(=O)N[C@@H](Cc2ccc(O)cc2)C(=O)N[C@@H](Cc2ccccc2)C(=O)N[C@@H](CCCC(N)=O)C(=O)N[C@@H](CC(N)=O)C(=O)N1)C(=O)NCC(N)=O [SEQ ID NO. 19, Mpa-Tyr-Phe-Hgn-Asn-Cys-Pro-Lys(12-aminododecanoic acid)-Gly-NH2] | > 10 µM | 2.5% | 0.014 mg/kg | 649 (Dose too | 9.08 mg/kg | – | – | >9.08 mg/kg | >9.08 mg/kg | None Observed | None Observed | – | – | – | – | – | – | – | – | –
NC[C@H](NC(=O)[C@@H]1CCCN1C(=O)[C@@H]1CSSCCC(=O)N[C@@H](Cc2ccc(O)cc2)C(=O)N[C@@H](Cc2ccccc2)C(=O)N[C@@H](CCCC(N)=O)C(=O)N[C@@H](CC(N)=O)C(=O)N1)C(=O)NCC(N)=O [SEQ ID NO. 17, Mpa-Tyr-Phe-Hgn-Asn-Cys-Pro-Dap-Gly-NH2] ([Mpa]YF[Aad](NH2)NCP[Dap]G-NH2; disulfide 1-6) | > 10 µM | 3.5% | 0.014 mg/kg | 34 | 0.478 mg/kg | >9.95 mg/kg | 4.78 mg/kg | – | – | None observed | – | (>6.18)* hrs | (>5.92)* hrs | (6.11 ± 0.07) hrs | None observed | – | – | – | – | –
CC(=O)NCCCC[C@H](NC(=O)[C@@H]1CCCN1C(=O)[C@@H]1CSSCCC(=O)N[C@@H](Cc2ccc(O)cc2)C(=O)N[C@@H](Cc2ccccc2)C(=O)N[C@@H](CCCC(N)=O)C(=O)N[C@@H](CC(N)=O)C(=O)N1)C(=O)NCC(N)=O [SEQ ID NO. 28, Mpa-Tyr-Phe-Hgn-Asn-Cys-Pro-Lys(X)a-Gly-NH2; (X)a = Ac] | > 10 µM | 30% | 0.1 mg/kg | 3 | 0.33 mg/kg | 3 mg/kg | 1 mg/kg | – | – | – | – | – | – | – | – | – | – | – | – | –
NCCCC[C@H](NC(=O)[C@@H]1CCCN1C(=O)[C@@H]1CSSCCC(=O)N[C@@H](Cc2ccc(O)cc2)C(=O)N[C@@H](Cc2ccccc2)C(=O)N[C@@H](CCCC(N)=O)C(=O)N[C@@H](CC(N)=O)C(=O)N1)C(=O)NCC(N)=O [SEQ ID NO. 25, Mpa-Tyr-Phe-Hgn-Asn-Cys-Pro-Lys-Gly-NH2] | – | 42.8% | 0.0015 mg/kg | 10 | – | 0.15 mg/kg | 0.05 mg/kg | – | – | – | – | (4.9 ± 0.05) hrs | (5.66 ± 0.83) hrs | (3.78 ± 0.05) hrs | None observed | 0.015 mg/kg | 3x longer | – | – | –
NCC(=O)NCC(=O)NCC(=O)NCC(=O)NCC(=O)NCC(=O)NCC(=O)NCCCC[C@H](NC(=O)[C@@H]1CCCN1C(=O)[C@@H]1CSSCCC(=O)N[C@@H](Cc2ccc(O)cc2)C(=O)N[C@@H](Cc2ccccc2)C(=O)N[C@@H](CCCC(N)=O)C(=O)N[C@@H](CC(N)=O)C(=O)N1)C(=O)NCC(N)=O [SEQ ID NO. 14, Mpa-Tyr-Phe-Hgn-Asn-Cys-Pro-Lys(X)a-Gly-NH2; (X)a = (Gly)7] | – | 26.1% | 0.0015 mg/kg | 100 | – | 1.5 mg/kg | 0.5 mg/kg | – | – | – | – | (>6.44)* hrs | (>6.39)* hrs | (5.86 ± 0.13) hrs | None Observed | 0.15 mg/kg | – | 0.0309 µM | – | –
NCC(=O)NCCCC[C@H](NC(=O)[C@@H]1CCCN1C(=O)[C@@H]1CSSCCC(=O)N[C@@H](Cc2ccc(O)cc2)C(=O)N[C@@H](Cc2ccccc2)C(=O)N[C@@H](CCCC(N)=O)C(=O)N[C@@H](CC(N)=O)C(=O)N1)C(=O)NCC(N)=O [SEQ ID NO. 8, Mpa-Tyr-Phe-Hgn-Asn-Cys-Pro-Lys(X)-Gly-NH2; X = Gly] | – | 40.3% | 0.0015 mg/kg | 10 | – | 1.5 mg/kg | 0.5 mg/kg | – | – | – | – | (>6.12)* hrs | (>6.12)* hrs | (6.20 ± 0.28) hrs | None Observed | 0.15 mg/kg | – | 0.0253 µM | – | –
NCC(=O)NCC(=O)NCC(=O)NCC(=O)NCC(=O)NCC(=O)NCCCC[C@H](NC(=O)[C@@H]1CCCN1C(=O)[C@@H]1CSSCCC(=O)N[C@@H](Cc2ccc(O)cc2)C(=O)N[C@@H](Cc2ccccc2)C(=O)N[C@@H](CCC(N)=O)C(=O)N[C@@H](CC(N)=O)C(=O)N1)C(=O)NCC(N)=O [SEQ ID NO. 20, Mpa-Tyr-Phe-Gln-Asn-Cys-Pro-Lys(X)a-Gly-NH2; (X)a = (Gly)6] | – | – | 0.0015 mg/kg | 100 | – | 5.0 mg/kg | 0.5 mg/kg | – | – | – | – | (>6.76)* hrs | (>5.46)* hrs | (6.11 ± 0.09) hrs | None observed | 0.15 mg/kg | – | – | 0.0273 µM | 60.9%

— US12410211B2, “V1A receptor partial agonist and method of use” (PharmaIN Corporation, priority 2020, dated 2025)
